{"source": "patent US6517856B1", "about": "“Insecticide resistance assay” (priority 1998, dated 2003)", "key": {"H. zea": {"system": "H. zea", "test": "Modified feeding disruption bioassay on MVP-hydrated meal pads, field strains", "assay_type": "in vivo, Helicoverpa zea", "method": "(§1) Trypan Blue (Direct Blue 14; Matheson Coleman and Bell, Norwood, Ohio) was blended with artificial diet, 20 mg dye per 100 ml diet. Blue diet aliquots were dispensed (100 μl per well) into 8-well microtiter plate strips (Nalge Nunc Int., Napersville, Ill.). The blue dye served as a marker of feeding on the assay diet, with larvae feeding on colored diet producing blue feces which were easily distinguished visually from feces derived from other food sources. Microtiter plate strips containing blue diet were frozen at −80° C. and lyophilized (Bench Top 6, Virtis, Gardiner, N.Y.; cold trap=−70° C., ˜200 mTorr, ambient temperature=23° C.) for a minimum of 24 h in order to form hydratable meal pads. Meal pads were stored in the dark in sealed plastic bags with desiccant prior to use.\n(§2) Meal pads were hydrated with aqueous dilutions of the B. thuringiensis CryIAc δ-endotoxin formulation MVP (Mycogen, San Diego, Calif.) at least 1 h prior to the start of assays. Fresh diet aliquots (100 μl) consistently lost 78-84% of their water content by weight during the lyophilization process. Therefore, meal pads were hydrated with 80 μl of MVP in distilled water (treatments) or distilled water only (controls). The insecticide concentrations referenced throughout this paper are in μg MVP per ml of diet, i.e. the final concentration of insecticide in hydrated diet, which is 80% of the concentration of the solution used to hydrate the meal pads. Strip caps (Nunc) were cut into single caps in order to seal wells of the microtiter plate strips individually, which facilitated observation within wells while not allowing neighboring larvae to escape. In order to reduce condensation within the wells and provide larvae with air, caps were punctured twice with a #3 insect pin. Bioassays were conducted at 27±1° C. with a 14:10 (L:D) cycle, and blue fecal pellets were counted at 24 h. Neonates were used in all assays and were exposed to assay diets within 24 h of hatch. The results from each assay are taken from two replicates of each dose, with each replicate consisting of 24 larvae, one larva per well. Control (no dose) treatments were replicated three times. Dead larvae (defined as no movement for 30 s after prodding with a blunt probe) at the assay endpoint (24 h) were discarded and not included in the reported results. For each surviving larva, the number of fecal pellets produced was recorded. Serial dilutions of the MVP formulation were used for meal pad hydration, with separate dilution series prepared for each replicate.\n(§3) Following 24 h exposure to diet containing a known concentration of MVP (Mycogen), a surviving larva was designated as a ‘feeder’ if it had produced more than two fecal pellets and as a ‘non-feeder’ otherwise. The cut-off value of two fecal pellets was adopted because this provided the clearest separation between species. Probit analyses were applied to the dichotomized fecal pellet counts in order to compare strains, between and within species, with respect to the feeding disruption response. A probit model was then used to relate the proportion of non-feeders to dose (on a log10 scale). Probit curves were fitted separately for each insect strain, and a NFC50 (non-feeding concentration50; log10 of the MVP concentration resulting in 50% non-feeders) and slope was obtained for H. zea. Also, probit curves were compared across species and among strains within species using PROC GENMOD with LINK=PROBIT (SAS 1993) on the data for all strains combined, and fitting effects for species, strains within species, log10 dose, as well as dose by species and dose by strain within species interactions.\n(§4) Probit estimates of the proportion of feeders at the diagnostic concentration for each strain were used to predict the properties of an assay involving exposure of a small number, n, of larvae in individual wells for 24 h to diet containing a diagnostic concentration of the MVP formulation (final MVP concentration in diet 0.04 μg/ml). […]"}, "[1]": {"system": "Heliothis virescens neonates", "test": "Feeding disruption bioassay on meal pads and diet cylinders (toxin incorporation, diet comparison)", "assay_type": "in vivo", "conditions": "for percentage of the population producing >5 fecal pellets: Hv Washington neonates, 0.04 μg MVP per ml diet, 24 h", "method": "Feeding disruption bioassays follow the method Examples 1-9. Bioassay diets contain 20 mg of the dye Trypan Blue (Direct Blue 14; Matheson Coleman and Bell, Norwood, Ohio) per 100 ml of diet. The blue dye serves as a marker of fecal origin, with only larvae feeding on blue diet producing blue feces. All bioassay results were taken from two replicates consisting of 24 insects per replicate. Dead larvae (defined as no movement for 30 s after prodding with a blunt probe) at the assay endpoint (24 h) were discarded and not included in the results in order to avoid interpreting mortality as a non-feeding assay response. Assays were conducted in clear 8-well microtiter plate strips (Nalge Nunc Int., Napersville, Ill.). Strip caps were separated with a scalpel to allow individual removal, facilitating observation of individual wells while not allowing neighboring larvae to escape. A #3 insect pin was used to puncture each cap twice, which permitted ventilation in order to reduce condensation within wells and provide larvae with air.\nThe original bioassay method was modified by substituting 100 μl meal pads (diameter=6 mm) for fresh diets. Except where noted, toxins were incorporated into the meal pads by hydrating with aqueous solutions containing appropriate concentrations of the B. thuringiensis CryIAc formulation MVP (Mycogen, San Diego, Calif.). Serial MVP dilutions were used in each assay, with dilution series for each replicate of a treatment made on different days. Hydration of 100 μl meal pads was by pipetting two 40 μl aliquots (water volume=80 μl) in order to prevent pads from floating in the wells, as discussed above. Lyophilized diet cylinders (400 μl) were hydrated to original wet weight as previously described with an aqueous MVP dilution, resulting in a final concentration of 0.04 μg MVP per ml diet. After 1 h, cylinders were divided into 3 sections with a scalpel and individual sections were placed in 8-well microtiter strips, 1 section per well. The feeding disruption bioassay was then used to assess the diffusion of MVP through the cylinder using one larva per cylinder section. All bioassay concentrations reported are final diet concentrations, and not those of solutions used to hydrate meal pads."}, "H. virescens": {"system": "H. virescens", "test": "Modified feeding disruption bioassay on MVP-hydrated meal pads, field strains", "assay_type": "in vivo, Heliothis virescens", "conditions": "for percentage producing 0-2 fecal pellets over 24 h: 0.05 μg MVP per ml diet", "method": "as §1, §2, §3, §4"}}, "data": [{"substance": "CryIAc: Bacillus thuringiensis CryIAc δ-endotoxin, commercial formulation MVP (Mycogen), >98.0% δ endotoxin", "values": [{"measurement": "pr, probability of a larva being a feeder, most conservative probit estimate", "setting": "H. zea; H. zea strains, diagnostic concentration 0.04 μg/ml, 24 h", "value": 0.80}, {"measurement": "non-feeding response (0-2 fecal pellets)", "setting": "H. zea; Hz Alachua neonates, 1200 μg MVP per ml diet, 24 h", "value": 87.2, "unit": "%"}, {"measurement": "feeding response (>2 fecal pellets)", "setting": "H. zea; Hz Alachua, 0.04 μg MVP per ml diet, 24 h", "value": 100, "unit": "%"}, {"measurement": "percentage of neonates remaining feeders (>2 fecal pellets per larva)", "setting": "H. zea; Hz Alachua, 1200 μg MVP per ml diet, 24 h", "value": 12.8, "unit": "%"}, {"measurement": "percentage producing 0-2 fecal pellets over 24 h", "setting": "H. zea; Hz Baldwin neonates, 400 μg MVP per ml diet", "value": 97.7, "unit": "%"}, {"measurement": "non-feeding response (0-2 fecal pellets)", "setting": "H. zea; Hz Barnwell neonates, 1200 μg MVP per ml diet, 24 h", "value": 100, "unit": "%"}, {"measurement": "feeding response (>2 fecal pellets)", "setting": "H. zea; Hz Barnwell, 0.04 μg MVP per ml diet, 24 h", "value": 100, "unit": "%"}, {"measurement": "percentage producing 0-2 fecal pellets over 24 h", "setting": "H. zea; Hz Harmon neonates, 400 μg MVP per ml diet", "value": 89.5, "unit": "%"}, {"measurement": "pr, feeding probability", "setting": "H. zea; Hz Irwin (south Georgia), 0.04 μg MVP per ml diet, 24 h", "value": 0.98}, {"measurement": "non-feeding response (0-2 fecal pellets)", "setting": "H. zea; Hz Nueces neonates, 1200 μg MVP per ml diet, 24 h", "value": 100, "unit": "%"}, {"measurement": "percentage producing 0-2 fecal pellets over 24 h", "setting": "H. zea; Hz Washington neonates, 400 μg MVP per ml diet", "value": 97.6, "unit": "%"}, {"measurement": "feeding response (>2 fecal pellets)", "setting": "H. zea; Hz Washington, 0.04 μg MVP per ml diet, 24 h", "value": 80.4, "unit": "%"}, {"measurement": "percentage of larvae producing >6 fecal pellets", "setting": "H. zea; all H. zea larvae assayed, 1200 μg MVP per ml diet, 24 h", "value": "< 1", "unit": "%"}, {"measurement": "percentage producing >15 fecal pellets", "setting": "H. zea; each of Hz Alachua, Hz Barnwell, Hz Baldwin, 0.04 μg MVP per ml diet, 24 h", "value": "> 90", "unit": "%"}, {"measurement": "percentage non-feeders", "setting": "H. zea; each of three other H. zea field strains, 400 μg MVP per ml diet, 24 h", "value": "Less than 88.0%"}, {"measurement": "non-feeding response", "setting": "H. zea; three of the six H. zea susceptible field strains, 400 μg MVP per ml hydrated diet", "value": "> 89", "unit": "%"}, {"measurement": "percentage of the population producing >5 fecal pellets", "setting": "[1]; 100 μl meal pads", "value": 10.4, "unit": "%"}, {"measurement": "percentage of the population producing >5 fecal pellets", "setting": "[1]; 400 μl cylinder, bottom section", "value": 6.4, "unit": "%"}, {"measurement": "percentage of the population producing >5 fecal pellets", "setting": "[1]; 400 μl cylinder, middle section", "value": 4.2, "unit": "%"}, {"measurement": "percentage of the population producing >5 fecal pellets", "setting": "[1]; 400 μl cylinder, top section", "value": 6.3, "unit": "%"}, {"measurement": "stability in diet during the lyophilization process", "setting": "[1]; judged by Hv 97 bioassay, 0.04 μg MVP per ml diet incorporated before lyophilization", "value": "apparently stable"}, {"measurement": "percentage of insects producing >10 fecal pellets", "setting": "H. virescens; H. virescens field strains pooled, 0.04 μg MVP per ml diet, 24 h", "value": "< 1", "unit": "%"}, {"measurement": "ps, probability of a larva being a feeder, most conservative probit estimate", "setting": "H. virescens; H. virescens strains, diagnostic concentration 0.04 μg/ml, 24 h", "value": 0.02}, {"measurement": "percentage producing 0-2 fecal pellets over 24 h", "setting": "H. virescens; Hv Franklin neonates", "value": 100, "unit": "%"}, {"measurement": "feeding response (>2 fecal pellets)", "setting": "H. virescens; Hv Franklin, 0.04 μg MVP per ml diet, 24 h", "value": 2.1, "unit": "%"}, {"measurement": "percentage producing 0-2 fecal pellets over 24 h", "setting": "H. virescens; Hv Johnston neonates", "value": 95.5, "unit": "%"}, {"measurement": "ps, feeding probability", "setting": "H. virescens; Hv Quitman (south Georgia), 0.04 μg MVP per ml diet, 24 h", "value": 0.15}, {"measurement": "percentage producing >5 fecal pellets", "setting": "H. virescens; Hv Quitman neonates, 0.04 μg MVP per ml diet, 24 h", "value": 2.2, "unit": "%"}, {"measurement": "percentage producing 0-2 fecal pellets over 24 h", "setting": "H. virescens; Hv Quitman neonates", "value": 95.5, "unit": "%"}, {"measurement": "feeding response (>2 fecal pellets)", "setting": "H. virescens; Hv Quitman, 0.04 μg MVP per ml diet, 24 h", "value": 14.9, "unit": "%"}, {"measurement": "percentage producing >5 fecal pellets", "setting": "H. virescens; Hv Washington neonates, 0.04 μg MVP per ml diet, 24 h", "value": 4.3, "unit": "%"}, {"measurement": "percentage producing 0-2 fecal pellets over 24 h", "setting": "H. virescens; Hv Washington neonates", "value": 97.7, "unit": "%"}, {"measurement": "fecal pellets produced per larva (none observed above)", "setting": "H. virescens; all H. virescens field strains, 0.04 μg MVP per ml diet, 24 h", "value": "≤ 11", "unit": "fecal pellets"}]}]}
